Data as given in patent publication US20210000912A1, “Compositions And Methods For Prophylaxis Or Treatment Of Pain” (Interk Peptide Therapeutics Limited, priority 2017, published 2021).

Experiments:
[1] = target: T1, PKG1α (h) (Homo sapiens, UniProt Q13976); assay: PKG1α kinase activity assay, cell free; format: biochemical
T1 construct: purchased Eurofins Pharma Discovery Services UK Ltd (contract assay service)
T1 sequence (Q13976 1-671): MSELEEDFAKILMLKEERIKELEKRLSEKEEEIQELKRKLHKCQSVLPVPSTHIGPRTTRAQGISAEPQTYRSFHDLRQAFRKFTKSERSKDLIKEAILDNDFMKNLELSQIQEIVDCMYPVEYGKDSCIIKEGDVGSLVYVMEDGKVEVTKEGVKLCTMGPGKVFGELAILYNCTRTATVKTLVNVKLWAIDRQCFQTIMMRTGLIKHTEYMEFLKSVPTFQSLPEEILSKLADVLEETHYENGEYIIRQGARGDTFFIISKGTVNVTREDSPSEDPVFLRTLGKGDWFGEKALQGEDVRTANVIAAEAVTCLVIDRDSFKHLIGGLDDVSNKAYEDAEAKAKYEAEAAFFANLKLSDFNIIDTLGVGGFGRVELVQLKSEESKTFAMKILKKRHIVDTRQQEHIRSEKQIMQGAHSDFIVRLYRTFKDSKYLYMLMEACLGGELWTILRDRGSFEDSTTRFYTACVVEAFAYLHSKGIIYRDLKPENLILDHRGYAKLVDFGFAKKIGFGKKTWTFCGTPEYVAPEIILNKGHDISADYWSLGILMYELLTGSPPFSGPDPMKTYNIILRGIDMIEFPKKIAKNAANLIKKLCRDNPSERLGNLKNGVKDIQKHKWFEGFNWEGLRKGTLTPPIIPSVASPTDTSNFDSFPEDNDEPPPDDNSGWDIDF
Method: The capacity of test peptides to inhibit the activity of the kinases PKG1α, PKG1β, and Src family kinases in a cell free assay was assessed. The test peptides were amidated at their C-terminal end (indicated by “—NH2”) unless otherwise noted. Kinase activity assays were conducted by Eurofins Pharma Discovery Services UK Ltd (Dundee Technology Park, Dundee, United Kingdom) and Reaction Biology Corp. (Malvern, Pa., USA).
All test peptides are prepared to 50× final assay concentration in 100% DMSO. This working stock of the test compound is added to assay wells as the first component in the reaction, followed by the remaining components of the respective assay protocols described below. There is no pre-incubation step between the test peptide and the kinase prior to initiation of the reaction. The kinases are diluted in buffer (20 mM MOPS, 1 mM EDTA, 0.01% Brij-35, 5% Glycerol, 0.1% β-mercaptoethanol, 1 mg/mL BSA) prior to addition to the reaction mix.
Positive control wells contain all components of the reaction, except the test peptide of interest. However, DMSO (at a final concentration of 2%) is included in positive control wells to control for solvent effects. Negative control wells contain all components of the reaction, with a reference inhibitor (staurosporine) replacing the test peptide. This abolishes kinase activity and establishes a base-line (0% kinase activity). Kinase assay protocols (Eurofins Pharma Discovery Services UK Ltd, Dundee Technology Park, Dundee, United Kingdom) are described below. Of the Src family kinases, only the assay protocol for c-Src is shown.
PKG1α (h) is incubated with 8 mM MOPS pH 7.0, 0.2 mM EDTA, 10 μM cGMP, 200 μM peptide RRRLSFAEPG, 10 mM magnesium acetate and [γ-^33P]-ATP (specific activity approx. 500 cpm/pmol, concentration as required). The reaction is initiated by the addition of the MgATP mix. After incubation for 40 minutes at room temperature, the reaction is stopped by the addition of 3% phosphoric acid solution. A 10 μL aliquot of the reaction is then spotted onto a P30 filtermat and washed three times for 5 mins in 75 mM phosphoric acid and once in methanol prior to drying and scintillation counting.

[2] = test system: nerve injured rats; assay: Intrathecal testing in neuropathic pain model, von Frey paw withdrawal threshold; format: in vivo, Sprague-Dawley rats; details: administered intrathecally, on a molar basis
Method: Experiments were performed on male Sprague-Dawley rats weighing 300-400 g at the start of experiments. Animals were housed 2 or 3 per cage until cannula surgery, after which time they were singly housed for 4 days until the day of experiment. Animals were maintained on standard 12-h light/dark cycle with food and water available ad libitum.
After baseline von Frey measures were taken, animals underwent partial nerve ligation (PNL) surgery, as previously described (Seltzer, Z., Dubner, R., Shir, Y., 1990. A novel behavioural-model of neuropathic pain disorders produced in rats by partial sciatic-nerve injury. Pain 43, 205-218). Briefly, animals were deeply anaesthetised using isoflurane (2.0-2.5% in oxygen), and the sciatic nerve of the left hind-leg was exposed via blunt dissection of the biceps femoris at a site near the trochanter, just distal to the posterior biceps semitendinosus nerve branches of the common sciatic nerve. A 6-0 silk suture was used to tightly ligate the dorsal 30-50% of the nerve. […]
Mechanical paw withdrawal threshold (PWT) was measured using a series of von Frey hairs with bending pressures ranging from 0.41 to 15.1 g. […] The mechanical PWT was calculated using the up-down paradigm (Dixon, W. J., 1980. Efficient analysis of experimental-observations. Annual Review of Pharmacology and Toxicology 20, 441-462). […]

Question: How did the IC50 [1] turn out when `N=C(N)NCCC[C@H](NC(=O)[C@H](CCCNC(=N)N)NC(=O)[C@H](CCCNC(=N)N)NC(=O)[C@H](CCCNC(=N)N)NC(=O)[C@H](CCCNC(=N)N)NC(=O)[C@H](CCCNC(=N)N)NC(=O)[C@H](CCCNC(=N)N)NC(=O)[C@H](CCCNC(=N)N)NC(=O)[C@H](CCCNC(=N)N)NC(=O)[C@H](CCCNC(=N)N)NC(=O)[C@H](CCCNC(=N)N)NC(=O)[C@H](CCCNC(=N)N)NC(=O)[C@H](CCCNC(=N)N)NC(=O)[C@@H](N)CCCNC(=N)N)C(N)=O` [IK01400, RRRRRRRRRRRRRR-NH2] was run?
Answer: The IC50 was 6.7 nM.

Question: What about the “PKG1α IC50” value ([1]; cell free, 10 μM cGMP, 40 minutes at room temperature) of the same compound?
Answer: The value was “single digit nanomolar range”.

Question: And the “alleviating neuropathic pain (ipsilateral von Frey PWT) compared to morphine” value [2]?
Answer: Its value is “more effective in alleviating neuropathic pain than morphine on a molar basis”.
